Assay results taken from patent US9416123B2, “Kinase modulators for the treatment of cancer” (Synovo GmbH, priority 2011, dated 2016).

Legend:
Src = Src (Homo sapiens (Human), UniProt P12931); assay: Kinase assay (33P FlashPlate) Src; settings: read-out: IC50 Src (n = 1); Table 1, n = 1
Protocol: (§1) FlashPlates from Perkin Elmer (Boston, Mass., USA) with a 50 μl reaction volume are used. The reaction cocktail was pipetted in 4 steps in the following order: 15 μl of ATP solution (in H2O), 20 μl of assay buffer (see below), 5 μl of test sample in 10% DMSO, 10 μl of enzyme/substrate mixture (in H2O). […] Certain assays also contained 1 mM CaCl2, 4 mM EDTA, 5 μg/ml Phosphatidylserine and 1 μg/ml 1.2-Dioleyl-glycerol. The MYLK2, CAMK1D, CAMK2A, CAMK2B, CAMK2D, CAMK4, CAMKK2, DAPK2 and EEF2K assays additionally contained 1 μg/ml Calmodulin and 0.5 mM CaCl2. The PRKG1 and PRKG2 assays additionally contained 1 μM cGMP. Recombinant Protein Kinases: All protein kinases were expressed in Sf9 insect cells or in E. coli as recombinant GST-fusion proteins or His-tagged proteins. All kinases were produced from human cDNAs, except JAK2, for which the mouse cDNA was used. […] The purity of the protein kinases was examined by SDS-PAGE/coomassie staining. The identity of the protein kinases was checked by mass spectroscopy. Assays were made under license from Chemicon International Inc. for JAK2. […] The reaction was stopped with 50 μl of 2% (v/v) H3PO4, plates were aspirated and washed two times with 200 μl 0.9% (w/v) NaCl. All assays were performed with a BeckmanCoulter Biomek 2000/SL robotic system.

VEGFR-2 = VEGFR-2 (Homo sapiens (Human), UniProt P35968); assay: Kinase assay (33P FlashPlate) VEGFR-2; settings: read-out: IC50 VEGFR-2 (n = 1); Table 1, n = 1
Protocol: as §1

B-Raf V600E = B-Raf V600E (Homo sapiens (Human), UniProt P15056, V600E); assay: Kinase assay (33P FlashPlate) B-Raf V600E; settings: read-out: IC50 B-Raf V600E (n = 1); Table 1, n = 1
Sequence of B-Raf V600E (P15056 whole entry V600E): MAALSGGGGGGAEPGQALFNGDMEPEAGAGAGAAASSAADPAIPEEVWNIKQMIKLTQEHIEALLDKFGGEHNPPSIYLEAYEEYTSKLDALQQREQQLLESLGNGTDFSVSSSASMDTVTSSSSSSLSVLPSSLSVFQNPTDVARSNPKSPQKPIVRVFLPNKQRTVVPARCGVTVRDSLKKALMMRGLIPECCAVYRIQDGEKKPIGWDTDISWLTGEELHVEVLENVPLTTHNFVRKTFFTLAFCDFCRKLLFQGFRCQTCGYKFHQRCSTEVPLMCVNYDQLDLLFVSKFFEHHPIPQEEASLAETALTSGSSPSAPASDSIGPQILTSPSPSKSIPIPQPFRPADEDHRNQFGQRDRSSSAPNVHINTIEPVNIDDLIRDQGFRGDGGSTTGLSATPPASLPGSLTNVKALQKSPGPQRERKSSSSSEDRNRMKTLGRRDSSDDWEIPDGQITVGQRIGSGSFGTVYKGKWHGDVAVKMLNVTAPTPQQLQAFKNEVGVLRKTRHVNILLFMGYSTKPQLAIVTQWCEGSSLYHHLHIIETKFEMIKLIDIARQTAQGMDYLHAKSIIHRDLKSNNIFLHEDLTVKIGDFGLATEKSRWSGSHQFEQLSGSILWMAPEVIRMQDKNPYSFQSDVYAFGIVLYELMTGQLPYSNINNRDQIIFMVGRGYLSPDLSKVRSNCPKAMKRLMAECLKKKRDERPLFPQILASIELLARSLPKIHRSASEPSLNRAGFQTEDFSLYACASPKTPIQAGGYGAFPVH
Protocol: as §1

RIPK2 = RIPK2 (Homo sapiens (Human), UniProt O43353); assay: Kinase assay (33P FlashPlate) RIPK2; type: biochemical; settings: Table 3
Sequence of RIPK2 (O43353 whole entry): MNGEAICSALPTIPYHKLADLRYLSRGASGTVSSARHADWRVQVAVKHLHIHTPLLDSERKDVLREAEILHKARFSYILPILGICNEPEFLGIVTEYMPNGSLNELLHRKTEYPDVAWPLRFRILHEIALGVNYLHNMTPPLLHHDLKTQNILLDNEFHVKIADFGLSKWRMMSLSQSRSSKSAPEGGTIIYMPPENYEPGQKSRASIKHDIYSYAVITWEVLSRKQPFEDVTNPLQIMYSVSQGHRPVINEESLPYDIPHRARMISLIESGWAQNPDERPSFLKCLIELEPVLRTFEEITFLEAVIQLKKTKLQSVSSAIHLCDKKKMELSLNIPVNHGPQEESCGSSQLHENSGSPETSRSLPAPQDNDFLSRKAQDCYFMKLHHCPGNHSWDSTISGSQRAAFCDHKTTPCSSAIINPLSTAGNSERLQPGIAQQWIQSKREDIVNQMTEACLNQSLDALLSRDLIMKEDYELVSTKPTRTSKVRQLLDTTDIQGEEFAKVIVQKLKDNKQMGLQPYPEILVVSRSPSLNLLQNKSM

Sequence of VEGFR-2 (P35968 20-1356): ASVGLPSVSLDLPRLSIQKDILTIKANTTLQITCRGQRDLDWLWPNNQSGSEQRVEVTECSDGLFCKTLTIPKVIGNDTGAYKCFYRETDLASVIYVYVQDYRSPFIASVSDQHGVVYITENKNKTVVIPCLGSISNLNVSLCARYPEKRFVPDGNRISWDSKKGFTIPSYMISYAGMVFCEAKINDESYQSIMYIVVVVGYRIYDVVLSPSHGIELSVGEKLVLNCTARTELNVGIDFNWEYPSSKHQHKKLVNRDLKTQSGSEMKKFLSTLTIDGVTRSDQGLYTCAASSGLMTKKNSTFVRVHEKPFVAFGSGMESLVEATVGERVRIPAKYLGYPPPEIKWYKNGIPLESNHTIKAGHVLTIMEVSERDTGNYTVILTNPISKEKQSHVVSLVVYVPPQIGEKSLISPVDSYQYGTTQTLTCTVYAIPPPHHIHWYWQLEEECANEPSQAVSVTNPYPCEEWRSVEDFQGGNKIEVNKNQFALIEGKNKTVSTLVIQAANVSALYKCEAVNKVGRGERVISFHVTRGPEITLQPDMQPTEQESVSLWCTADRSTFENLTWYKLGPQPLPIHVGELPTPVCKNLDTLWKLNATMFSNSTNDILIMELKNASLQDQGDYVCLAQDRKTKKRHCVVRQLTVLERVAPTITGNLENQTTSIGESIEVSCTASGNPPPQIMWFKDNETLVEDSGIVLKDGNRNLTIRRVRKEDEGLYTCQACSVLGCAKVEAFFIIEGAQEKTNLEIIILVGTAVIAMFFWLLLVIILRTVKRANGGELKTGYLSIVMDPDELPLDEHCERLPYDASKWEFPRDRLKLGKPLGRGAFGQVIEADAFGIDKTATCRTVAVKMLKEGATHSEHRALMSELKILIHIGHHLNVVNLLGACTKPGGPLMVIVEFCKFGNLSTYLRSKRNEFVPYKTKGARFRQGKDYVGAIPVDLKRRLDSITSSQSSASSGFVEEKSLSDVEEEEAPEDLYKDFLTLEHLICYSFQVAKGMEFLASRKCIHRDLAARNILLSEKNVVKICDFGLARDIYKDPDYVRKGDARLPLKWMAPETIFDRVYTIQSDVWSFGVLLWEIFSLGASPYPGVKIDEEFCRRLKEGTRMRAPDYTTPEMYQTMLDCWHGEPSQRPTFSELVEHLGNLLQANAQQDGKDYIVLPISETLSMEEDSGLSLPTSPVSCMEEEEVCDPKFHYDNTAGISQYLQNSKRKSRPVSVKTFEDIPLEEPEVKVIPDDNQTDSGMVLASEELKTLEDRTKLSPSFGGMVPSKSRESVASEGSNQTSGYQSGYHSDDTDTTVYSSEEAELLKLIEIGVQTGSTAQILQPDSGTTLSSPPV
Sequence of Src (P12931 whole entry, looked up): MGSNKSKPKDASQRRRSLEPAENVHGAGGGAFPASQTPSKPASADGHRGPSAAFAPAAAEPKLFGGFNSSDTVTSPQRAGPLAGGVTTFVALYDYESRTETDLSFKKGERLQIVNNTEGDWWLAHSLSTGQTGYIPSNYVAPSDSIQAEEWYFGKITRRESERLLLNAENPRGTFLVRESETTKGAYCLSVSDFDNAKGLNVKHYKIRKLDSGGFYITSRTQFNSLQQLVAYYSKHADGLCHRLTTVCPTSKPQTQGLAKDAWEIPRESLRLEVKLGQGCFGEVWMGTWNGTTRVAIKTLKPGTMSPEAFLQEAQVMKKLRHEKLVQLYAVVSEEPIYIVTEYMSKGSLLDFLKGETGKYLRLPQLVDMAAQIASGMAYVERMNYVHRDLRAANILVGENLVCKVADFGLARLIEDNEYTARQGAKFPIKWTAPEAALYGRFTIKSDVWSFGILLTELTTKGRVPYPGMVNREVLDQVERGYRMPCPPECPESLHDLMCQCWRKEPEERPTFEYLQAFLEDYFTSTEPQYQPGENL

IC50 (Src)	IC50 (VEGFR-2)	IC50 (B-Raf V600E)	IC50 (RIPK2)	melting point	Compound
			0.041 µM		Nc1c(-c2ccc(F)cc2)c(-c2ccncc2)nn1-c1c(Cl)cc(Cl)cc1Cl [Compound 6]
6.4 µM	31 µM	> 100 µM			NC(=O)c1c(-c2ccncc2)nn(-c2c(Cl)cc(Cl)cc2Cl)c1N [Compound 14, 5-Amino-3-(pyridin-4-yl)-1-(2,4,6-trichlorophenyl)-1H-pyrazole-4-carboxamide]
> 100 µM	> 100 µM	> 100 µM			CCOC(=O)c1c(-c2ccncc2)nn(-c2c(Cl)cc(Cl)cc2Cl)c1N [Compound 15, Ethyl 5-amino-3-(pyridin-4-yl)-1-(2,4,6-trichlorophenyl)-1H-pyrazole-4-carboxylate]
55 µM	43 µM	> 100 µM		208 °C	Nc1c(C(=O)O)c(-c2ccncc2)nn1-c1c(Cl)cc(Cl)cc1Cl [Compound 16, 5-Amino-3-(pyridine-4-yl)-1-(2,4,6-trichlorophenyl)-1H-pyrazole-4-carboxylic acid]
> 100 µM	87 µM	> 100 µM			Nc1cc(-c2ccncc2)nn1-c1c(Cl)cc(Cl)cc1Cl [Compound 19, 3-(Pyridin-4-yl)-1-(2,4,6-trichlorophenyl)-1H-pyrazol-5-amine]

Further lines, the compound ahead of its results:

Compound	IC50 (Src)	IC50 (VEGFR-2)	IC50 (B-Raf V600E)	IC50 (RIPK2)	melting point
Clc1cc(Cl)c(N/N=C/c2ccncc2)c(Cl)c1 [Compound 3a]	2 µM	0.21 µM	2.5 µM		
Nc1c(-c2ccc(F)cc2)c(-c2ccncc2)nn1-c1ccccc1 [Compound 5, 4-(4-Fluorophenyl)-1-phenyl-3-(pyridine-4-yl)-1H-pyrazol-5-amine]	52 µM	2.4 µM	0.9 µM		
COc1ccc(-n2nc(-c3ccncc3)c(-c3ccc(F)cc3)c2N)cc1 [Compound 8]	23 µM	1.9 µM	0.86 µM		200 °C
N#Cc1ccc(-n2nc(-c3ccncc3)c(-c3ccc(F)cc3)c2N)cc1 [Compound 11, 4-(5-Amino-4-(4-fluorophenyl)-3-(pyridine-4-yl)-1H-pyrazol-1-yl)benzonitrile]	> 100 µM	1.3 µM	1.7 µM		
NC(=O)c1c(-c2ccncc2)nn(-c2ccccc2)c1N [Compound 18, 5-Amino-1-phenyl-3-(pyridine-4-yl)-1H-pyrazole-4-carboxamide]	19 µM	48 µM	64 µM		
Fc1ccc(-c2cn(-c3ccc(C(F)(F)F)cc3)nc2-c2ccncc2)cc1 [Compound 20]	12 µM	27 µM	2.7 µM		
